From PubChem BioAssay AID720715 (Broad Institute, 2013)
Results filed as inconclusive are left out. Active and inactive are the calls of the source. How the calls were made is not given here.

System: not listed separately
Test: HEK293 cell cytotoxicity, dose response, cytotoxicity control, plate reader, dry powder, set 2 (AID 720715)
Settings: HEK293 cytotoxicity, plate reader; at 12 µM (top of the series)

Compound	activity change, negative = cytotoxicity
O=C(c1nnsc1S(=O)c1ccc(Cl)cc1)N1CCOCC1 (stereo unspecified)	0.296% (inactive)

Same assay, conditions: HEK293 cytotoxicity, plate reader; at 26 µM (top of the series)

Compound	activity change, negative = cytotoxicity
Nc1nonc1C(=O)NCCNCc1cc(Br)ccc1OCc1ccc(F)cc1	-59.1% (inactive)
COc1ccc(NC(=O)c2nc(S(=O)(=O)Cc3cccc(C)c3)ncc2Cl)c(OC)c1	-19.6% (inactive)
Cc1ccc2cc(CN(CC3CCCO3)C(=O)NC3CCCCC3)c(=O)[nH]c2c1C (stereo unspecified)	5.24% (inactive)
COc1cc2ncnc(N[C@H](C)c3ccccc3)c2cc1OC	70.1% (inactive)
Cc1cc2c(cc(C(=O)N3CCC(C(=O)NC4CCCC4)CC3)n2Cc2c(F)cccc2Cl)o1	-24.5% (inactive)
COc1ccccc1N1CCN(c2ncc(C(=O)N3CCN(c4cccc(Cl)c4)CC3)c3ccccc23)CC1	-7.71% (inactive)
Cc1cc(N2CCCC2=O)cc(C)c1S(=O)(=O)NCCOc1ccc(C(C)(C)C)cc1	57.1% (inactive)
CCCOc1ccccc1C1CC(=O)Nc2cc3c(cc21)OCO3 (stereo unspecified)	-19.2% (inactive)
CC(=O)Nc1cccc(NC(=O)CSc2ncc(-c3ccc(Cl)cc3)n2Cc2ccco2)c1	-4.47% (inactive)
O=c1c2ccccc2nc2n1C(CSCc1ccc(Cl)cc1Cl)CS2 (stereo unspecified)	-9.98% (inactive)
COc1ccc(NS(=O)(=O)c2ccc(C(=O)N3CCCCCC3)cc2)cc1	-33.4% (inactive)
CCOC(=O)C1(Cc2ccc(Cl)cc2)CCN(C(C)Cc2ccc(O)c(OC)c2)CC1 (stereo unspecified)	-31.7% (inactive)
CC(C)[C@H](NC(=O)OC(C)(C)C)c1nnc(S(=O)(=O)Cc2c(F)cccc2Cl)o1	-61.3% (inactive)
CCCc1nnc(NC(=O)c2nc(S(=O)(=O)Cc3ccc(C)cc3)ncc2Cl)s1	-2.77% (inactive)
CC(=O)N1CCN(C(=O)CCc2cc(C(C)(C)C)c(O)c(C(C)(C)C)c2)CC1	-13.7% (inactive)
Fc1ccc(-n2nnnc2-c2cnc(-c3cccs3)nc2C(F)(F)F)cc1	-31.8% (inactive)
CN(CC(=O)Nc1cccc(S(=O)(=O)N2CCOCC2)c1)CC(=O)Nc1ccc(Cl)c(C(F)(F)F)c1	-50% (inactive)

System: HEK293 cytotoxicity, plate reader
Test: as above
Settings: not given

Compound	AC50 [µM]
CN(C)c1nc(-c2ccccn2)nnc1-c1ccccc1	5.55
COc1cc(CN2CCc3ccccc3C2)ccc1O	14.7
CC(C)(C)NC(=O)CSc1nc2ccc(NC(=O)CSc3nnnn3Cc3ccccc3)cc2s1	15.9
COc1ccc(Nc2nc(N3CCCCC3)c3ccccc3n2)cc1	23.8
CCOC(=O)c1ccc(NC(=O)Cn2ncc(Cl)c(Cl)c2=O)cc1	15.1
CN(C(=O)COc1ccccc1C(=O)NCCOc1ccccc1)c1ccccc1	18.1
CCOC(=O)C1CCN(C(=O)c2ccc(OCC(=O)Nc3cccc(C(F)(F)F)c3)c(OC)c2)CC1	5.01
O=C1CSc2ccc(C(=O)Nc3cccc(S(=O)(=O)Nc4ccc(Br)cc4)c3)cc2N1	19.3
